Laboratory results published in US6943190B2, “Method of using pyruvate and/or its derivatives for the treatment of cytokine-mediated inflammatory conditions” (University of Pittsburgh-of the Commonwealth System of …, priority 2001, dated 2005).

Assays:
Caco-2 human enterocytes = test: Cytomix-induced hyperpermeability of Caco-2 monolayers (FD4 clearance); assay type: cell-based; conditions: 48 h incubation with cytomix (IFN-γ, IL-1β, TNF-α); both of the highest concentrations; P<0.001
Method: To test for the effect of ethyl pyruvate on a stabilizing calcium salt solution (REPS) in a cytokine-induced intestinal epithelial hyperpermeability condition, an in vitro model of intestinal epithelial injury due to inflammation, such as might occur in cases of inflammatory bowel disease (i.e., Crohn's disease or ulcerative colitis) was used.
Exemplary materials and methods include the following, while minor modifications can be made: Caco-2 human enterocytes (10^5 cells/well) were plated on permeable filters in 12-well Transwell bicameral chambers (COSTAR, Corning, N.Y.) and fed biweekly. Permeability studies were carried out using confluent monolayers between 21-28 d after seeding. The permeability probe was FITC-labeled dextran (4400 Da; FD4). A sterile stock solution of FD4 (25 mg/ml) was prepared by dissolving the compound in HEPES-buffered DMEM complete medium (pH 6.8) and passing it through a filter ([…] pore size). For permeability studies, the medium was aspirated from the apical and basolateral sides of the Transwell chambers. FD4 solution (200 μl) was added to the apical compartments. […] (Menconi et al., Am. J. Physiol. (1997) 272:G1007-G1021.) The permeability of monolayers was expressed as a clearance (C), which was calculated as previously described. […]

NF-B = test: LPS-induced NF-kB activation in RAW264.7 cells (EMSA); assay type: cell-based, murine; conditions: EMSA at 15 minutes and 4 hours after LPS
Method: Cell Culture. BALB/c murine macrophage-like RAW 264.7 cells obtained from the American Type Culture Collection (ATCC Number TIB-71, ATCC, Rockville, Mass.) (61), were cultured in RPMI 1640 (Life Technologies, Grand Island, N.Y.) supplemented with 10% heat inactivated fetal bovine serum (Gemini, Calabasas, Calif.), 2 mM glutamine (Cat. # 25030-149, Gibco BRL, Rockville, Mass.) and antibiotic-antimycotic mix (Cat. # 15240-062, Gibco BRL, Rockville, Mass.) in a humidified incubator with 5% CO2. Cells were mechanically removed and resuspended in serum-free Opti-MEM I medium (Life Technology, Grand Island, N.Y.) to perform experiments at 75% confluence.
Nuclear extract preparation. The day before use, cells were plated at a density of 1×10^6 per well in 6 well tissue culture plates. After stimulation at indicated times, cells were removed from the incubator and place on ice immediately. Cells were washed once with 2 ml phosphate buffered saline (PBS) then harvested in 1 ml of PBS containing 2% FBS using rubber scrapper. […] The supernatant was transferred to a new tube, protein concentration was determined using a commercially available Bradford assay (Bio-Rad Protein Assay, Hercules, Calif.). […]

CCOC(=O)C(C)=O [ethyl pyruvate]
cytomix-induced hyperpermeability of Caco-2 monolayers (FD4 clearance) (Caco-2 human enterocytes): significantly decreased cytomix-induced hyperpermeability
LPS-induced activation of NF-B (NF-B): significantly prevented LPS-induced activation of NF-B signaling in a concentration dependent fashion
